The values below come from patent US20250101003A1, “SPIROCYCLIC CAV2.3 ANTAGONISTS” (LARIO THERAPEUTICS LIMITED, priority 2021, published 2025).

This assay concerns the target Cav2.3 (Homo sapiens, UniProt Q15878). The assay can be described thus: Human Cav2.3 channel calcium-influx assay. Format: cell-based. The conditions noted are these: HEK-293 T-Rex/Kir2.1/Cav2.3e-β4-α2δ1 cells, Fluo8 fluorescence, without pluronic acid; read-out: Cav2.3 (pIC50) (converted). On the procedure: HEK-293 T-Rex cells were transfected with pcDNA3.1-Kir2.1 to generate a stable cell line. After antibiotic selection, the obtained stable pools were analysed using FLIPR^TETRA (membrane potential assay), and a limiting dilution was performed and a HEK-293 T-Rex/Kir2.1 clone was selected. The clone was transfected with pcDNA3.1-Cav2.3e and pBud-Cav-β4-α2δ1 to generate a stable cell line where the Cav2.3e expression is inducible. After antibiotic selection, functional clone pool analysis and two successive limiting dilutions, the final clone underwent a qPCR analysis and a biophysical and pharmacological validation using patch-clamp.
A compound plate, containing 10 test compounds in eight-points dose response with n=4, was prepared. Test compounds dose response curves were prepared in automated fashion in 100% DMSO at CyBio Felix and starting from a stock solution in 100% DMSO; a defined volume was serially moved into destination wells pre-filled with the desired DMSO volume; stock solution concentration volumes were dependent on the final compounds concentrations to be tested and the final DMSO content used in the assay. For the assay test compounds dose response curves ranged from 30 μM and half log dilution with 0.3% final DMSO. In order to obtain the 8-points dose response curve all the concentrations were created by starting from a 10 mM DMSO stock solution and then moving 9.5 μL into a destination well pre-filled with 20.5 μL of 100% DMSO and repeating this step seven times. This initial step was done into 96 MTP plates, 10 compounds/plate. One 384 MTP was then reformatted to contain all the 10 compounds at 8 concentrations, quadruplicate data points. This so obtained 384 MTP compound plate served as source plate in a “mother to child” process with a CyBi®-Well dispenser in which 0.7 μL of compounds were moved into a destination plate pre-filled with 57.6 μL of Tyrode's buffer 0 mM K+, thus obtaining 4× concentrated compounds solution. In columns 1-2 and 23-24 the control wells were added. Both “source” compound plate and “destination” compound plate were barcoded and a relationship between the two plates was thus generated.
The day before the experiment, cells were detached by gentle wash with DPBS, followed by 5 min incubation at 37° C. with Trypsin solution. Detached cells were diluted with OptiMEM+Doxycycline at 0.2 μg/mL, counted and plated in Poly-D-Lysine coated black/clear bottom (15.000 c/well in 20 μl/well) by the use of a MATRIX WellMate dispenser. Plates were placed into a humidified incubator at 37° C. with 5% CO2 until the experimental day. 24 h after seeding 10 μL/well of 1.5× Fluo8 NW dye solution prepared in Tyrode's buffer 0 mM K^+ were added on top of the seeding medium. Cell plates were incubated for 40-60 min at RT in the dark. We then Injected off-line 10 μL/well of test compounds and controls 4× concentrated in Tyrode's Buffer 0 mM K+ with the CyBi®-Well instrument. Cell plates were incubated 3 minutes at RT. Finally, we injected 20 μL/well of 3× concentrated activator solution (K20-Na130-Ca2 buffer: 20 mM KCl, 130 mM NaCl, 2 mM CaCl2, 10 mM HEPES, 10 mM Glucose, final concentrations, prepared starting from “KO-Na150-Ca2” and “K150-Na0-Ca2” buffers) at FDSS7000EX instrument and read emitted fluorescence for 130 seconds.
Data analysis was performed with Genedata Screener® software and reported compounds activity as % effect in relation to the normalization standards. The Kinetic Response Value (KRV) is calculated as follows:
KRV=Maximal fluorescence recorded from second 5 to second 130 minus baseline fluorescence, computed as average from second 1 to second 2, of the kinetic trace. The KRV was normalized versus Neutral Controls and Inhibitor Controls in order to obtain the Activity[%] for each well. […] Therefore, the compound activity values were scaled (based on the two references) to a common range (two-point normalization). […]

Chain of Cav2.3 (Q15878 1-747 limits assumed): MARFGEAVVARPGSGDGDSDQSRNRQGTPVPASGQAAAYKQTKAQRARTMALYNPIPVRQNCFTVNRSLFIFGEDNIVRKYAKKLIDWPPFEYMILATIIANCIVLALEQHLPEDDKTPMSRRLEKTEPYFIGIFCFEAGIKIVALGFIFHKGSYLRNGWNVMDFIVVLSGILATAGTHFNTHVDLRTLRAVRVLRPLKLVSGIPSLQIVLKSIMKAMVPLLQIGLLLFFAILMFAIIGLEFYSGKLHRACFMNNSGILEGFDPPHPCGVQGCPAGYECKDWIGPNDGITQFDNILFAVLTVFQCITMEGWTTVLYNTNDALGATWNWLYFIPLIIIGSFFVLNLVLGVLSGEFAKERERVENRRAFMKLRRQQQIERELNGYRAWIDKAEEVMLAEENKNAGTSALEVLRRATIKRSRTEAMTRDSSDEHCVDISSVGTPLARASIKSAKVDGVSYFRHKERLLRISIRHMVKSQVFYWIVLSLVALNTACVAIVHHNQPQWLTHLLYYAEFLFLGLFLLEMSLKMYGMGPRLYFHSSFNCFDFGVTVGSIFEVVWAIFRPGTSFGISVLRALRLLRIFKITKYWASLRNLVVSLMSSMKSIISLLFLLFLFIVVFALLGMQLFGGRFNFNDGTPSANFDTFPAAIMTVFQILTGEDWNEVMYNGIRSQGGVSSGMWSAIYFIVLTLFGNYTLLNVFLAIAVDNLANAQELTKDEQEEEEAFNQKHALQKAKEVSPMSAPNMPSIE
Chain of Cav2.3 (Q15878 1126-2313 limits assumed): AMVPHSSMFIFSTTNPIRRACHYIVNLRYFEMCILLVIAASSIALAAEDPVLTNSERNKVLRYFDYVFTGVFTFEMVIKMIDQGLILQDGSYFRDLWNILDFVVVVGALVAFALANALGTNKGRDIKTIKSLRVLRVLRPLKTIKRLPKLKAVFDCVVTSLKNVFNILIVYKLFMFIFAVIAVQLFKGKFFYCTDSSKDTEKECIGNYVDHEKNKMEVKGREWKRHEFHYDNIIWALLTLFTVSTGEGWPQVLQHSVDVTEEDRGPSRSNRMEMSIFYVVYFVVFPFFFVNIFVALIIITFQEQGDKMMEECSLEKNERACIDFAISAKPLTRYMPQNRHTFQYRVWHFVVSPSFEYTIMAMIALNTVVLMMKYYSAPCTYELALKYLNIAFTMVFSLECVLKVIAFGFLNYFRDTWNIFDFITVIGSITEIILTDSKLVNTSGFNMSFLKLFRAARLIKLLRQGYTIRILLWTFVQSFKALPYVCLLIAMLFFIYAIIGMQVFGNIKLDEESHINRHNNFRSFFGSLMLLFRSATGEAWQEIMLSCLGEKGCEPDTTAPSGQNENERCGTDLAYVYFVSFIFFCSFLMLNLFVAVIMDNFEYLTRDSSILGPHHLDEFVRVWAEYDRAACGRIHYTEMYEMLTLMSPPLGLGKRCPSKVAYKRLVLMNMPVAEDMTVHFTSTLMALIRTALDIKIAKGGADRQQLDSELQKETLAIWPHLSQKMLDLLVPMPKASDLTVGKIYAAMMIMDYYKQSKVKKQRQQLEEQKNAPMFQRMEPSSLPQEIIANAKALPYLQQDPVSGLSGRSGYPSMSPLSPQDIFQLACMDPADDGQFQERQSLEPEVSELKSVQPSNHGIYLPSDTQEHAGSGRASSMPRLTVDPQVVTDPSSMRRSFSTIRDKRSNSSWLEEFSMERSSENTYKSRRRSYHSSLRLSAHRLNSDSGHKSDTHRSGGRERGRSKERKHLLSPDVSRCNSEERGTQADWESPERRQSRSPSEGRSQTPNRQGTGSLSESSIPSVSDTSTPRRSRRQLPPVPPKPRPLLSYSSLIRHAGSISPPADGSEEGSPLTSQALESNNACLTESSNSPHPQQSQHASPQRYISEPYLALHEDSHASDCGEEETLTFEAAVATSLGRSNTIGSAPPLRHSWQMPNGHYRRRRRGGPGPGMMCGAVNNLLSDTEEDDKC

Consider `CC(=O)N1CCc2ccc(S(=O)(=O)N3CC4(CCC4)CC3C)cc2C1` (stereo not drawn) [Example 94, 1-(7-((7-Methyl-6-azaspiro[3.4]octan-6-yl)sulfonyl)-3,4-dihydroisoquinolin-2(1H)-yl)ethan-1-one], for which the IC50 was 2 µM.

For the compound `CC1CC2(CCCC2)CN1S(=O)(=O)c1cccs1` (stereo not drawn) [Example 73, 3-Methyl-2-(thiophen-2-ylsulfonyl)-2-azaspiro[4.4]nonane], the IC50 is 1.7 µM.

Regarding `CCc1ncsc1S(=O)(=O)N1CC2(CCC2)CC1C` (stereo not drawn) [Example 64, 4-Ethyl-5-((7-methyl-6-azaspiro[3.4]octan-6-yl)sulfonyl)thiazole], the IC50 was 3.72 µM.

Consider `CCC1CC2(CCC2)CN1S(=O)(=O)c1ccc2ccoc2c1` (stereo not drawn) [Example 91, 6-(Benzofuran-6-ylsulfonyl)-7-ethyl-6-azaspiro[3.4]octane], for which the IC50 was 2.4 µM.

Regarding `CC1CC2(CCC2)CN1S(=O)(=O)c1ccc(F)s1` (stereo not drawn) [Example 110, 6-((5-fluorothiophen-2-yl)sulfonyl)-7-methyl-6-azaspiro[3.4]octane], the IC50 is 5.01 µM.

Take `CC1CC2(CCN1S(=O)(=O)c1cccs1)CC2` (stereo not drawn) [Example 74, 5-Methyl-6-(thiophen-2-ylsulfonyl)-6-azaspiro[2.5]octane]: the IC50 was 6.03 µM.

`CC1CC2(CCC2)CN1S(=O)(=O)c1ccc(C#N)s1` (stereo not drawn) [Example 8, 5-((7-Methyl-6-azaspiro[3.4]octan-6-yl)sulfonyl)thiophene-2-carbonitrile]: the IC50 is 2.57 µM.

On to `CC1CC2(CCC2)CN1S(=O)(=O)c1ccc2c(c1)OCCO2` (single isomer, unassigned) [Example 7, 6-((2,3-dihydrobenzo[b][1,4]dioxin-6-yl)sulfonyl)-7-methyl-6-azaspiro[3.4]octane], for which the IC50 was 2.19 µM.

Regarding `CC1CC2(CCC2)CN1S(=O)(=O)c1ccco1` (single isomer, unassigned) [Example 38, 6-(furan-2-ylsulfonyl)-7-methyl-6-azaspiro[3.4]octane], the IC50 was 3.39 µM.

For `CC1CC2(CCC2)CN1S(=O)(=O)c1nc2ccccc2s1` (stereo not drawn) [Example 67, 2-((7-Methyl-6-azaspiro [3.4]octan-6-yl)sulfonyl)benzo[d]thiazole], the IC50 is 9.77 µM.

As to `CC1CC2(CCC2)CN1S(=O)(=O)c1ccccc1` (stereo not drawn) [Example 45, 7-Methyl-6-(phenylsulfonyl)-6-azaspiro[3.4]octane], the IC50 is 3.39 µM.

As to `Cc1ccc(S(=O)(=O)N2CC3(CCC3)CC2C)o1` (single isomer, unassigned) [Example 55, 7-methyl-6-((5-methylfuran-2-yl)sulfonyl)-6-azaspiro[3.4]octane], the IC50 was 4.07 µM.

`CC1CC2(CCC2)CN1S(=O)(=O)c1ccncc1` (single isomer, unassigned) [Example 13, 7-methyl-6-(pyridin-4-ylsulfonyl)-6-azaspiro[3.4]octane]: the IC50 was 1.66 µM.

In the case of `CCC1CC2(CCC2)CN1S(=O)(=O)c1ccc2c(c1)S(=O)(=O)CC2` (stereo not drawn) [Example 61, 6-((7-Ethyl-6-azaspiro[3.4]octan-6-yl)sulfonyl)-2,3-dihydrobenzo[b]thiophene 1,1-dioxide], the IC50 is 1.78 µM.

In the case of `CC1CC2(CCC2)CN1S(=O)(=O)c1ccc2oncc2c1` (stereo not drawn) [Example 68, 5-((7-Methyl-6-azaspiro[3.4]octan-6-yl)sulfonyl)benzo[d]isoxazole], the IC50 is 39.8 µM.

On to `CC1CC2(CCC2)CN1S(=O)(=O)c1ccncc1` (stereo not drawn) [Example 11, 7-Methyl-6-(pyridin-4-ylsulfonyl)-6-azaspiro[3.4]octane], for which the IC50 is 3.24 µM.

As for `CC1CC2(CCC2)CN1S(=O)(=O)c1ncccn1` (stereo not drawn) [Example 14, 7-Methyl-6-(pyrimidin-2-ylsulfonyl)-6-azaspiro[3.4]octane], the IC50 was 46.8 µM.

For `CC1CC2(CCC2)CN1S(=O)(=O)c1ccccc1` (single isomer, unassigned) [Example 47, 7-methyl-6-(phenylsulfonyl)-6-azaspiro[3.4]octane], the IC50 was 1.58 µM.
